Values quoted from earlier work in patent publication US11426447B2, “Neuregulin for the treatment of tumors of the nervous system” (LEIBNIZ-INSTITUT FUR …, priority 2016, dated 2022).

Test system: schwannoma
Settings: cited from earlier work

Substance: bevacizumab
- efficacy for schwannoma growth control and hearing improvement (NF2 patients (Plotkin et al., 2009)): limited efficacy
- side effects (human, in vivo): severe side effects
